Reference: ChEMBL document CHEMBL1136554, “p38 Inhibitors: piperidine- and 4-aminopiperidine-substituted naphthyridinones, quinolinones, and dihydroquinazolinones” (Bioorg Med Chem Lett, 2003)

What was measured:
[1] = Oral bioavailability in rat; type: ADME, organism-based; conditions: in vivo
[2] = Plasma clearance measured in rat; type: ADME, organism-based; conditions: read-out: Clp
MAP kinase p38 [3] = target: T1, MAP kinase p38 (Homo sapiens, UniProt O15264+Q15759+Q16539+P53778); assay: Inhibition of p38 MAP kinase; type: protein assay
MAP kinase p38 [4] = target: T1, MAP kinase p38; assay: Inhibition of p38 kinase related TNF-alpha release; type: functional

Compound	bioavailability [1]	clearance [2]	IC50 (MAP kinase p38 [3])	IC50 (MAP kinase p38 [4])
CC(C)N1CCC(c2cc(-c3ccccc3Cl)c3ccc(=O)n(-c4c(Cl)cccc4Cl)c3c2)CC1	17%	39 mL/min/kg	0.2 nM	5.5 nM
CC(C)N1CCC(c2cc(-c3ccc(F)cc3Cl)c3c(c2)N(c2c(Cl)cccc2Cl)C(=O)CC3)CC1	10%	70 mL/min/kg	0.8 nM	24 nM
CN1C2CCC1CC(Nc1cc(-c3ccccc3Cl)c3c(c1)N(c1c(Cl)cccc1Cl)C(=O)NC3)C2 (configuration not stated)	–	–	0.4 nM	20 nM
CC(C)N1CCC(c2cc3c(ccc(=O)n3-c3c(Cl)cccc3Cl)c(-c3ccccc3Cl)n2)CC1	32%	51 mL/min/kg	1.3 nM	4.9 nM
CC1(C)CC(Nc2cc(-c3ccccc3Cl)c3c(c2)N(c2c(Cl)cccc2Cl)C(=O)NC3)CC(C)(C)N1	–	–	3.7 nM	200 nM
CC(C)N1CCC(Nc2cc(-c3ccccc3Cl)c3c(c2)N(c2c(Cl)cccc2Cl)C(=O)NC3)CC1	–	–	1.6 nM	31 nM

Second part, the compound after the results:

bioavailability [1]	clearance [2]	IC50 (MAP kinase p38 [3])	IC50 (MAP kinase p38 [4])	Compound
–	–	1.1 nM	13 nM	CN1C(C)(C)CC(Nc2cc3c(ccc(=O)n3-c3c(Cl)cccc3Cl)c(-c3ccccc3Cl)n2)CC1(C)C
5.9%	9.4 mL/min/kg	0.8 nM	10 nM	CC1(C)CC(Nc2cc3c(ccc(=O)n3-c3c(Cl)cccc3Cl)c(-c3ccccc3Cl)n2)CC(C)(C)N1
8.5%	38 mL/min/kg	0.4 nM	24 nM	CN1C2CCC1CC(Nc1cc3c(ccc(=O)n3-c3c(Cl)cccc3Cl)c(-c3ccccc3Cl)n1)C2 (configuration not stated)
–	–	1.1 nM	51 nM	CC(C)N1CCC(Nc2cc3c(ccc(=O)n3-c3c(Cl)cccc3Cl)c(-c3ccccc3Cl)n2)CC1
–	–	0.2 nM	18 nM	O=c1ccc2c(-c3ccccc3Cl)nc(NC3CCNCC3)cc2n1-c1c(Cl)cccc1Cl
